The text below walks through data of paper PMC10257043 (Molecular Plant Pathology, 2023).

One series has as its target T1, Uvi2 (Ustilago hordei, UniProt I2G262).
T1 sequence (I2G262 22-243): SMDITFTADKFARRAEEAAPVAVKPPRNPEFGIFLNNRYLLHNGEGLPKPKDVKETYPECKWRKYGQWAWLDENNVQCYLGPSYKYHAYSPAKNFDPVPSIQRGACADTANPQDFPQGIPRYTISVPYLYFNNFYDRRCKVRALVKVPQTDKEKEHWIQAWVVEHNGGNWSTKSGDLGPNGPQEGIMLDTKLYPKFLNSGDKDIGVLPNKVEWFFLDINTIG
As to the kind of experiment: microscale thermophoresis. It is filed as binding. To be noted: MST as for Cpl1. (Microscale thermophoresis detects binding through changes in fluorescence in a small temperature gradient.)

The series “SEC-MALS” deals with the molecule itself. Briefly: SEC-MALS. On the technique in general: SEC sorts molecules by how far they enter the pores of the column.

In the case of `CC(=O)N[C@H]1[C@H](O[C@H]2[C@H](O)[C@@H](NC(C)=O)C(O)O[C@@H]2CO)O[C@H](CO)[C@@H](O)[C@@H]1O` (some centres unmarked) [chitobiose], the Kd (usually the concentration at which binding is half-saturated) at Uvi2 is 15 ± 3.72 µM.

B1: Uvi2 (UHOR_02700 gene product), the Cpl1 homologue from Ustilago hordei, recombinant (natural protein)
chain: T1 sequence (I2G262 22-243)
Consider B1, for which the stoichiometry N (commonly the number of molecules, sites or subunits per partner or assembly) in the series “SEC-MALS” is 2.
